Reference: PubChem BioAssay (NCI)
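These data come from cells grown in 96-well plates and exposed to compound for 48 hours at five concentrations. TGI is the concentration that stops growth completely.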

Experiments:
Assay in all cases: NCI tumour cell line growth inhibition, 48 h
786-0 renal = tested on: 786-0 renal
HCC-2998 colon = tested on: HCC-2998 colon
HL-60(TB) leukemia = tested on: HL-60(TB) leukemia
K-562 leukemia = tested on: K-562 leukemia
LOX IMVI melanoma = tested on: LOX IMVI melanoma
MOLT-4 leukemia = tested on: MOLT-4 leukemia
NCI-H226 lung = tested on: NCI-H226 lung
NCI-H522 lung = tested on: NCI-H522 lung
OVCAR-5 ovarian = tested on: OVCAR-5 ovarian
OVCAR-8 ovarian = tested on: OVCAR-8 ovarian
SF-295 CNS = tested on: SF-295 CNS
SK-MEL-2 melanoma = tested on: SK-MEL-2 melanoma
SK-OV-3 ovarian = tested on: SK-OV-3 ovarian
SNB-19 CNS = tested on: SNB-19 CNS
SR leukemia = tested on: SR leukemia
TK-10 renal = tested on: TK-10 renal
DU-145 prostate = tested on: DU-145 prostate
MCF7 breast = tested on: MCF7 breast

Compound	TGI (786-0 renal)	TGI (HCC-2998 colon)	TGI (HL-60(TB) leukemia)	TGI (K-562 leukemia)	TGI (LOX IMVI melanoma)	TGI (MOLT-4 leukemia)	TGI (NCI-H226 lung)	TGI (NCI-H522 lung)	TGI (OVCAR-5 ovarian)	TGI (OVCAR-8 ovarian)	TGI (SF-295 CNS)	TGI (SK-MEL-2 melanoma)	TGI (SK-OV-3 ovarian)	TGI (SNB-19 CNS)	TGI (SR leukemia)	TGI (TK-10 renal)	TGI (DU-145 prostate)	TGI (MCF7 breast)
CCOC(=O)C(C(=O)OCC)c1ccc([N+](=O)[O-])o1	13.4 µM	31.3 µM	> 22.3 µM	> 30.7 µM	9.41 µM	19.8 µM	45.7 µM	3.26 µM	32.1 µM	16.1 µM	36.8 µM	34.1 µM	> 100 µM	> 100 µM	> 26.4 µM	30.8 µM		
O=C(Nc1cccc(C(F)(F)F)c1)C(=O)C1NC(=S)NC1=O (stereo not given)	> 100 µM	> 100 µM	> 100 µM	> 100 µM	> 100 µM	> 100 µM	> 100 µM		> 100 µM	> 100 µM	> 100 µM	> 100 µM	> 100 µM	> 100 µM	> 100 µM	> 100 µM		
O=C1NC(=O)C(C(=O)C(=O)Nc2ccc(Cl)cc2Cl)C(=O)N1	> 100 µM	> 100 µM	> 100 µM	> 100 µM		> 100 µM			> 100 µM	> 100 µM	> 100 µM	> 100 µM	> 100 µM	> 100 µM		> 100 µM		
O=c1c2ccccc2nc2n1-c1ccccc1SC2	> 100 µM	> 100 µM		> 100 µM	> 100 µM	75.3 µM		70.8 µM	> 100 µM	> 100 µM	> 100 µM	> 100 µM	> 100 µM	> 100 µM		> 100 µM		
CCOP12(OCC)NC(=O)OC1(C(F)(F)F)c1ccccc1O2 (stereo not given)	> 100 µM		> 100 µM	> 100 µM	> 100 µM	> 100 µM	> 100 µM	> 100 µM		> 100 µM	> 100 µM	> 100 µM	> 100 µM	> 100 µM		> 100 µM		
Cc1ccc(C(c2c(O)c3ccccc3n(-c3ccccc3)c2=O)c2c(O)c3ccccc3n(-c3ccccc3)c2=O)cc1	> 100 µM	> 100 µM		> 100 µM	> 100 µM	> 100 µM	> 100 µM	> 100 µM	> 100 µM			> 100 µM		> 100 µM	> 100 µM	> 100 µM		
NC(=O)/C(=N\NC(=O)C[n+]1ccccc1)C1NC(=O)NC1=O (stereo not given)	> 100 µM	> 100 µM	> 100 µM	> 100 µM	> 100 µM	> 100 µM	> 100 µM		> 100 µM	> 100 µM	> 100 µM	> 100 µM	> 100 µM	> 100 µM	> 100 µM	> 100 µM		
O=C1CC2(CCC3=C(O2)c2ccccc2NC(=O)C3)C(=O)c2ccccc2N1 (stereo not given)	> 100 µM		> 100 µM	> 100 µM	> 100 µM	> 100 µM	> 100 µM	> 100 µM	> 100 µM	> 100 µM	> 100 µM	> 100 µM		> 100 µM		> 100 µM		
Clc1ccc(CCn2cncn2)cc1	> 100 µM		> 100 µM	> 100 µM	> 100 µM	> 100 µM	> 100 µM	> 100 µM	> 100 µM	> 100 µM	> 100 µM	> 100 µM	> 100 µM		> 100 µM	> 100 µM		
CCSc1cc2c(cc1O)CC[C@@H]1[C@@H]2CC[C@]2(C)[C@@H](O)CC[C@@H]12	24.5 µM	27.5 µM	> 100 µM	21 µM	23 µM	21.2 µM	35.1 µM	19.5 µM	51.2 µM	38.5 µM		37.7 µM	39.2 µM	25.5 µM		62.3 µM	74.9 µM	27.5 µM
O=C(c1nc2ccccc2[nH]c1=O)C(O)c1ccco1 (stereo not given)	> 100 µM	> 100 µM	> 100 µM	> 100 µM	> 100 µM	> 100 µM	> 100 µM	> 100 µM	> 100 µM	> 100 µM	> 100 µM	> 100 µM	> 100 µM	> 100 µM		> 100 µM		
N#CC1=C(c2ccccc2)C(=C2Nc3ccccc3N2)C2S/C(=C\c3ccccc3)C(=O)N2C1=N (stereo not given)	6.09 µM	13.3 µM	6.53 µM	50.5 µM	3.43 µM	7.79 µM	3.73 µM	3.52 µM	5.84 µM	5.19 µM	6.21 µM	4.05 µM	3.62 µM	11.7 µM	4.87 µM	4.78 µM		
C=CCN1COc2c(cc3c4c(cccc24)C(=O)O3)C1	39.1 µM	> 100 µM	50.3 µM	68.6 µM	> 10 µM	64.9 µM	> 100 µM	28.4 µM	> 100 µM	> 100 µM	> 100 µM	> 100 µM	> 100 µM	> 100 µM		39 µM		
